Measured values from ChEMBL document CHEMBL1201862, “PubChem BioAssay data set” (2004).
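Step 1: Grow cells in 96-well plates. Step 2: Expose to compound for 48 hours at 5 concentrations. Step 3: Interpolate endpoints linearly; if unreached, use highest concentration. GI50 marks 50% less growth.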 The source made the active and inactive calls. No stated cut-off is given here; in the data, active = GI50 up to about 1.1 µM and inactive = higher.

Columns and labels:
Test in all cases: inhibition of tumour cell growth, NCI panel, 48 h
SF-295 = test system: SF-295
SNB-75 = test system: SNB-75
NCI-H460 = test system: NCI-H460
OVCAR-4 = test system: OVCAR-4
Malme-3M = test system: Malme-3M
SR = test system: SR
A549 = test system: A549
SF-539 = test system: SF-539
UACC-62 = test system: UACC-62
A498 = test system: A498
SW-620 = test system: SW-620
NCI-H23 = test system: NCI-H23
CCRF-CEM = test system: CCRF-CEM
IGROV-1 = test system: IGROV-1
SN12C = test system: SN12C
HOP-92 = test system: HOP-92
SK-MEL-28 = test system: SK-MEL-28

Row | Compound | GI50 (SF-295) | GI50 (SNB-75) | GI50 (NCI-H460) | GI50 (OVCAR-4) | GI50 (Malme-3M) | GI50 (SR) | GI50 (A549) | GI50 (SF-539) | GI50 (UACC-62) | GI50 (A498) | GI50 (SW-620) | GI50 (NCI-H23) | GI50 (CCRF-CEM) | GI50 (IGROV-1) | GI50 (SN12C) | GI50 (HOP-92) | GI50 (SK-MEL-28)
1 | CNS(=O)(=O)NNS(=O)(=O)c1ccc(OC)cc1 | > 100 µM (inactive) | > 100 µM (inactive) | > 100 µM (inactive) | > 100 µM (inactive) | > 100 µM (inactive) | > 100 µM (inactive) | > 100 µM (inactive) | > 100 µM (inactive) | > 100 µM (inactive) | > 100 µM (inactive) | > 100 µM (inactive) | > 100 µM (inactive) | > 100 µM (inactive) | > 100 µM (inactive) | – | – | –
2 | c1ccc(SC2(Sc3ccccc3)CCCC2)cc1 | > 100 µM (inactive) | > 100 µM (inactive) | > 100 µM (inactive) | > 100 µM (inactive) | – | > 100 µM (inactive) | > 100 µM (inactive) | > 100 µM (inactive) | > 100 µM (inactive) | > 100 µM (inactive) | > 100 µM (inactive) | > 100 µM (inactive) | > 100 µM (inactive) | – | > 100 µM (inactive) | 71.1 µM (inactive) | > 100 µM (inactive)
3 | O=C(CCC(=O)Nc1ccc(Cl)cc1)CC(=O)c1ccc(F)cc1 | > 100 µM (inactive) | > 100 µM (inactive) | > 100 µM (inactive) | > 100 µM (inactive) | > 100 µM (inactive) | > 100 µM (inactive) | > 100 µM (inactive) | > 100 µM (inactive) | > 100 µM (inactive) | – | > 100 µM (inactive) | > 100 µM (inactive) | – | > 100 µM (inactive) | > 100 µM (inactive) | > 100 µM (inactive) | > 100 µM (inactive)
4 | CC1=C(C(=O)O)N2C(=O)[C@@H](NC(=O)C(c3ccccc3)N3CSC(=S)N(C(C)C)C3)C2SC1 (some centres not stated) | > 100 µM (inactive) | > 100 µM (inactive) | > 100 µM (inactive) | > 100 µM (inactive) | > 100 µM (inactive) | – | – | > 100 µM (inactive) | > 100 µM (inactive) | > 100 µM (inactive) | – | > 100 µM (inactive) | > 100 µM (inactive) | > 100 µM (inactive) | > 100 µM (inactive) | > 100 µM (inactive) | 59 µM (inactive)
5 | CC(C)(C)C(=O)C1CC(=O)c2ccccc2C1=O (configuration not stated) | 36.2 µM (inactive) | 5.98 µM (inactive) | 29.7 µM (inactive) | 33 µM (inactive) | 16.3 µM (inactive) | – | 38.2 µM (inactive) | 34.3 µM (inactive) | 25.8 µM (inactive) | 42.3 µM (inactive) | 32.4 µM (inactive) | 20.7 µM (inactive) | 33.4 µM (inactive) | 33.7 µM (inactive) | 28.2 µM (inactive) | 24.8 µM (inactive) | 20.5 µM (inactive)
6 | N#CC(C#N)c1ccc(C(=O)N2CCC[C@H]2CO)cc1 | > 100 µM (inactive) | > 100 µM (inactive) | > 100 µM (inactive) | > 100 µM (inactive) | > 100 µM (inactive) | – | > 100 µM (inactive) | > 100 µM (inactive) | > 100 µM (inactive) | – | > 100 µM (inactive) | > 100 µM (inactive) | > 100 µM (inactive) | > 100 µM (inactive) | > 100 µM (inactive) | 58.2 µM (inactive) | > 100 µM (inactive)
7 | C#CCC(O)c1ccccc1C(O)CC#C (configuration not stated) | > 100 µM (inactive) | 28.2 µM (inactive) | > 100 µM (inactive) | > 100 µM (inactive) | 79.4 µM (inactive) | – | > 100 µM (inactive) | – | > 100 µM (inactive) | – | > 100 µM (inactive) | > 100 µM (inactive) | > 100 µM (inactive) | > 100 µM (inactive) | > 100 µM (inactive) | 30.8 µM (inactive) | > 100 µM (inactive)
8 | COc1cc2ccc3c4ccccc4cnc3c2cc1OC | > 100 µM (inactive) | > 100 µM (inactive) | > 100 µM (inactive) | > 100 µM (inactive) | > 100 µM (inactive) | > 100 µM (inactive) | > 100 µM (inactive) | > 100 µM (inactive) | > 100 µM (inactive) | – | > 100 µM (inactive) | > 100 µM (inactive) | > 100 µM (inactive) | > 100 µM (inactive) | > 100 µM (inactive) | > 100 µM (inactive) | > 100 µM (inactive)
9 | Cc1cc(C)nc(NS(=O)(=O)c2ccc(Nc3c4ccccc4nc4c(C(=O)Nc5ccc(S(=O)(=O)N=C(N)N)cc5)cccc34)cc2)n1 | – | 27.2 µM (inactive) | > 100 µM (inactive) | > 100 µM (inactive) | 78.7 µM (inactive) | – | > 100 µM (inactive) | > 100 µM (inactive) | > 100 µM (inactive) | > 100 µM (inactive) | > 100 µM (inactive) | > 100 µM (inactive) | > 100 µM (inactive) | > 100 µM (inactive) | > 100 µM (inactive) | 37.5 µM (inactive) | 67.3 µM (inactive)
10 | N#CC(C(=O)C(N)=O)c1ccccc1Cl (configuration not stated) | > 100 µM (inactive) | > 100 µM (inactive) | > 100 µM (inactive) | > 100 µM (inactive) | > 100 µM (inactive) | – | > 100 µM (inactive) | > 100 µM (inactive) | > 100 µM (inactive) | > 100 µM (inactive) | > 100 µM (inactive) | > 100 µM (inactive) | > 100 µM (inactive) | > 100 µM (inactive) | > 100 µM (inactive) | – | > 100 µM (inactive)
11 | Cc1cc(N(CCC#N)CCC#N)ccc1/C=C1N=C(/C=C\c2ccccc2)N(NC(=O)CC(=O)Nc2ccccc2Cl)C\1=O | > 100 µM (inactive) | > 100 µM (inactive) | > 100 µM (inactive) | > 100 µM (inactive) | > 100 µM (inactive) | – | > 100 µM (inactive) | > 100 µM (inactive) | > 100 µM (inactive) | > 100 µM (inactive) | > 100 µM (inactive) | > 100 µM (inactive) | > 100 µM (inactive) | > 100 µM (inactive) | > 100 µM (inactive) | > 100 µM (inactive) | > 100 µM (inactive)
12 | CCCC1N2CCCCC2[C@@H]2c3[nH]c4ccccc4c3CCN12 (some centres not stated) | > 100 µM (inactive) | 32.3 µM (inactive) | > 100 µM (inactive) | > 100 µM (inactive) | 25.8 µM (inactive) | – | > 100 µM (inactive) | > 100 µM (inactive) | 85.1 µM (inactive) | > 100 µM (inactive) | > 100 µM (inactive) | > 100 µM (inactive) | > 100 µM (inactive) | > 100 µM (inactive) | > 100 µM (inactive) | > 100 µM (inactive) | > 100 µM (inactive)
13 | CCC(C)(C)C(=O)O[C@H]1C[C@@H](C)C=C2C=C[C@H](C)[C@H](CC[C@@H]3C[C@@H](O)CC(=O)O3)[C@H]21 [SIMVASTATIN] | 1.13 µM (inactive) | 0.658 µM (active) | 9.08 µM (inactive) | > 30 µM (inactive) | – | 13.2 µM (inactive) | 5.79 µM (inactive) | 9.04 µM (inactive) | 0.469 µM (active) | 0.902 µM (active) | 9.59 µM (inactive) | 0.982 µM (active) | 11.3 µM (inactive) | 0.647 µM (active) | 1.51 µM (inactive) | < 0.003 µM (active) | > 30 µM (inactive)
